ChEMBL document CHEMBL4507297, “Data for DCP probe PF-04457845” (2021)

Assays:
[1] = test system: Tyrosine-protein kinase ABL1 (Homo sapiens), P00519 [Y253F]; conditions: Compound concentration 1000.0 nM
[2] = biological target: Activin receptor type-1-like (Homo sapiens) (UniProt P37023); conditions: Compound concentration 1000.0 nM
[3] = biological target: RAC-gamma serine/threonine-protein kinase (Homo sapiens) (UniProt Q9Y243); conditions: Compound concentration 1000.0 nM
[4] = biological target: 5'-AMP-activated protein kinase catalytic subunit alpha-2 (Homo sapiens) (UniProt P54646); conditions: Compound concentration 1000.0 nM
[5] = biological target: Ankyrin repeat and protein kinase domain-containing protein 1 (Homo sapiens) (UniProt Q8NFD2); conditions: Compound concentration 1000.0 nM
[6] = biological target: Mitogen-activated protein kinase kinase kinase 5 (Homo sapiens) (UniProt Q99683); conditions: Compound concentration 1000.0 nM
[7] = biological target: Aurora kinase B (Homo sapiens) (UniProt Q96GD4); conditions: Compound concentration 1000.0 nM
[8] = biological target: BMP-2-inducible protein kinase (Homo sapiens) (UniProt Q9NSY1); conditions: Compound concentration 1000.0 nM
[9] = biological target: Tyrosine-protein kinase BTK (Homo sapiens) (UniProt Q06187); conditions: Compound concentration 1000.0 nM
[10] = biological target: Cyclin-dependent kinase 11B (Homo sapiens) (UniProt P21127); conditions: Compound concentration 1000.0 nM
[11] = biological target: Serine/threonine-protein kinase DCLK3 (Homo sapiens) (UniProt Q9C098); conditions: Compound concentration 1000.0 nM
[12] = biological target: Serine/threonine-protein kinase 17B (Homo sapiens) (UniProt O94768); conditions: Compound concentration 1000.0 nM
[13] = biological target: Epidermal growth factor receptor (Homo sapiens) (UniProt P00533); conditions: Compound concentration 1000.0 nM
[14] = test system: Epidermal growth factor receptor (Homo sapiens), P00533 [G719S]; conditions: Compound concentration 1000.0 nM
[15] = biological target: Ephrin type-A receptor 1 (Homo sapiens) (UniProt P21709); conditions: Compound concentration 1000.0 nM
[16] = biological target: Ephrin type-A receptor 3 (Homo sapiens) (UniProt P29320); conditions: Compound concentration 1000.0 nM
[17] = biological target: Ephrin type-B receptor 2 (Homo sapiens) (UniProt P29323); conditions: Compound concentration 1000.0 nM
[18] = biological target: Serine/threonine-protein kinase/endoribonuclease IRE1 (Homo sapiens) (UniProt O75460); conditions: Compound concentration 1000.0 nM
[19] = biological target: Hormonally up-regulated neu tumor-associated kinase (Homo sapiens) (UniProt P57058); conditions: Compound concentration 1000.0 nM
[20] = biological target: Interleukin-1 receptor-associated kinase 4 (Homo sapiens) (UniProt Q9NWZ3); conditions: Compound concentration 1000.0 nM
[21] = test system: Mast/stem cell growth factor receptor Kit (Homo sapiens), P10721 [D816H]; conditions: Compound concentration 1000.0 nM
[22] = test system: Mast/stem cell growth factor receptor Kit (Homo sapiens), P10721 [L576P]; conditions: Compound concentration 1000.0 nM
[23] = biological target: Mast/stem cell growth factor receptor Kit (Homo sapiens) (UniProt P10721); conditions: Compound concentration 1000.0 nM
[24] = test system: Leucine-rich repeat serine/threonine-protein kinase 2 (Homo sapiens), Q5S007 [G2019S]; conditions: Compound concentration 1000.0 nM
[25] = biological target: Tyrosine-protein kinase Lyn (Homo sapiens) (UniProt P07948); conditions: Compound concentration 1000.0 nM
[26] = biological target: Mitogen-activated protein kinase kinase kinase 15 (Homo sapiens) (UniProt Q6ZN16); conditions: Compound concentration 1000.0 nM
[27] = biological target: Mitogen-activated protein kinase kinase kinase 4 (Homo sapiens) (UniProt Q9Y6R4); conditions: Compound concentration 1000.0 nM
[28] = biological target: MAP kinase-activated protein kinase 5 (Homo sapiens) (UniProt Q8IW41); conditions: Compound concentration 1000.0 nM
[29] = test system: Hepatocyte growth factor receptor (Homo sapiens), P08581 [Y1235D]; conditions: Compound concentration 1000.0 nM
[30] = biological target: Myosin light chain kinase (Homo sapiens) (UniProt Q32MK0); conditions: Compound concentration 1000.0 nM
[31] = biological target: Serine/threonine-protein kinase Nek1 (Homo sapiens) (UniProt Q96PY6); conditions: Compound concentration 1000.0 nM
[32] = biological target: Serine/threonine-protein kinase OSR1 (Homo sapiens) (UniProt O95747); conditions: Compound concentration 1000.0 nM
[33] = biological target: Phosphatidylinositol 4,5-bisphosphate 3-kinase catalytic subunit alpha isoform (Homo sapiens) (UniProt P42336); conditions: Compound concentration 1000.0 nM
[34] = test system: Phosphatidylinositol 4,5-bisphosphate 3-kinase catalytic subunit alpha isoform (Homo sapiens), P42336 [Q546K]; conditions: Compound concentration 1000.0 nM
[35] = biological target: Phosphatidylinositol 4-phosphate 5-kinase type-1 gamma (Homo sapiens) (UniProt O60331); conditions: Compound concentration 1000.0 nM
[36] = biological target: Serine/threonine-protein kinase N1 (Homo sapiens) (UniProt Q16512); conditions: Compound concentration 1000.0 nM
[37] = biological target: cGMP-dependent protein kinase 1 (Homo sapiens) (UniProt Q13976); conditions: Compound concentration 1000.0 nM
[38] = biological target: Serine/threonine-protein kinase SIK3 (Homo sapiens) (UniProt Q9Y2K2); conditions: Compound concentration 1000.0 nM
[39] = biological target: Proto-oncogene tyrosine-protein kinase ROS (Homo sapiens) (UniProt P08922); conditions: Compound concentration 1000.0 nM
[40] = biological target: Ribosomal protein S6 kinase alpha-1 (Homo sapiens) (UniProt Q15418); conditions: Compound concentration 1000.0 nM
[41] = biological target: Uncharacterized serine/threonine-protein kinase SBK3 (Homo sapiens) (UniProt P0C264); conditions: Compound concentration 1000.0 nM
[42] = biological target: TGF-beta receptor type-2 (Homo sapiens) (UniProt P37173); conditions: Compound concentration 1000.0 nM
[43] = biological target: Serine/threonine-protein kinase ULK2 (Homo sapiens) (UniProt Q8IYT8); conditions: Compound concentration 1000.0 nM
[44] = biological target: D(1A) dopamine receptor (Homo sapiens) (UniProt P21728); conditions: Compound concentration 10.0 uM
[45] = biological target: Sodium-dependent noradrenaline transporter (Homo sapiens) (UniProt P23975); conditions: Compound concentration 10.0 uM

Mast/stem cell growth factor receptor Kit (Homo sapiens), sequence (P10721 whole entry): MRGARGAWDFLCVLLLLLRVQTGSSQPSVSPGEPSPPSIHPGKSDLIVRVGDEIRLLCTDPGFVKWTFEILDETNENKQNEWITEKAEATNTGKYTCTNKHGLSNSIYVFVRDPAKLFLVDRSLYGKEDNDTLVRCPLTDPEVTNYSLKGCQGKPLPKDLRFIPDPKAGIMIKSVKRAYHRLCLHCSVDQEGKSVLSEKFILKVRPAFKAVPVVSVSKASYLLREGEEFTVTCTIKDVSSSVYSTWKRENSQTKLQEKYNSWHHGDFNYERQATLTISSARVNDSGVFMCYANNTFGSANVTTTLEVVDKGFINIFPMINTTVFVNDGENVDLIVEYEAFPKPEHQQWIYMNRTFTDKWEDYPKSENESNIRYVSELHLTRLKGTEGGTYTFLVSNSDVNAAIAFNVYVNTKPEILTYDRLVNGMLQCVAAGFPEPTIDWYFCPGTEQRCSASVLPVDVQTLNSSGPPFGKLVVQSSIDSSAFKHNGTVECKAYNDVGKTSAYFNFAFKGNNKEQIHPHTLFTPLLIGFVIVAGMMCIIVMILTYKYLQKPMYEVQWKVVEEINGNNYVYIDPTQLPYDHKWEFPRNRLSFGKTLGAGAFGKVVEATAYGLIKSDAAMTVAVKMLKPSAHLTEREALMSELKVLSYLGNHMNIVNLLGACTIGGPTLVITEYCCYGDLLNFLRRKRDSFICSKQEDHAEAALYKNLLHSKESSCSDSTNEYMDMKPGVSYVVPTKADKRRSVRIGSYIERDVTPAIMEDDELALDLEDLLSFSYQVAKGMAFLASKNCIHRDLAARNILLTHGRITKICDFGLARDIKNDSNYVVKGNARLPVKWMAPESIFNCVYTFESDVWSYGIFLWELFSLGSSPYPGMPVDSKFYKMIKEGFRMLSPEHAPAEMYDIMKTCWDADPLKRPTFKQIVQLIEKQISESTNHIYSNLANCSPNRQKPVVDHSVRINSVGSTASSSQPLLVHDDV
Mast/stem cell growth factor receptor Kit (Homo sapiens), P10721 [D816H], sequence (P10721 whole entry D816H): as the sequence (P10721 whole entry) above, with D816H counted along it
Tyrosine-protein kinase BTK (Homo sapiens), sequence (Q06187 whole entry): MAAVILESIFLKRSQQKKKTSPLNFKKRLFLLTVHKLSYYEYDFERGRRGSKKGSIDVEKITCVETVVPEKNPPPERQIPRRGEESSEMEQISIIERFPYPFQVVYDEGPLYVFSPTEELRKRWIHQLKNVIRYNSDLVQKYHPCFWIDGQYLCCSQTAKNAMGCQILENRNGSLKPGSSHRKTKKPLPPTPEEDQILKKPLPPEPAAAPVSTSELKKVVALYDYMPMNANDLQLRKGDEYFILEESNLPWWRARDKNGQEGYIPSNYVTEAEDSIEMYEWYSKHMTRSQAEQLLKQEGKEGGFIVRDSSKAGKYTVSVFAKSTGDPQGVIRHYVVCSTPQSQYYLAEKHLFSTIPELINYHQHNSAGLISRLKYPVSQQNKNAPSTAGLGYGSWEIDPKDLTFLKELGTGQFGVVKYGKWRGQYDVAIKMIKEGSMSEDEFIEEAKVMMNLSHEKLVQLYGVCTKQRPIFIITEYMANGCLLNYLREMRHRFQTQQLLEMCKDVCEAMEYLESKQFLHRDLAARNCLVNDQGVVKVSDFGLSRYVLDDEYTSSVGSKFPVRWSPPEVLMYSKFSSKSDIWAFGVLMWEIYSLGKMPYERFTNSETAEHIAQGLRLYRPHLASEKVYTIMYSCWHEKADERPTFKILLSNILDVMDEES
Activin receptor type-1-like (Homo sapiens), sequence (P37023 whole entry): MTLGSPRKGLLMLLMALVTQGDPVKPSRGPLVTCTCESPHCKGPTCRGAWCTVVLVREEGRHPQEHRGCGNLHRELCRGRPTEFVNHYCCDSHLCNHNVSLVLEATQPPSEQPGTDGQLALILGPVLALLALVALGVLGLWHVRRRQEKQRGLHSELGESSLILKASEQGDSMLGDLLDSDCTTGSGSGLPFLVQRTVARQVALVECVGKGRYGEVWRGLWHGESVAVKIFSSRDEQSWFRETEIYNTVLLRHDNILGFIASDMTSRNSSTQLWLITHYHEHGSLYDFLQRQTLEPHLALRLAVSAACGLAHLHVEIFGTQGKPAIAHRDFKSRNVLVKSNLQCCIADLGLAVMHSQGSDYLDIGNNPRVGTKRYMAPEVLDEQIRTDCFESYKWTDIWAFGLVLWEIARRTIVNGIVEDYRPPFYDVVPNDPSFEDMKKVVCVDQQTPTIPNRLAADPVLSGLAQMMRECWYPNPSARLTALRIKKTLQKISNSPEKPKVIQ
Ephrin type-A receptor 3 (Homo sapiens), sequence (P29320 whole entry): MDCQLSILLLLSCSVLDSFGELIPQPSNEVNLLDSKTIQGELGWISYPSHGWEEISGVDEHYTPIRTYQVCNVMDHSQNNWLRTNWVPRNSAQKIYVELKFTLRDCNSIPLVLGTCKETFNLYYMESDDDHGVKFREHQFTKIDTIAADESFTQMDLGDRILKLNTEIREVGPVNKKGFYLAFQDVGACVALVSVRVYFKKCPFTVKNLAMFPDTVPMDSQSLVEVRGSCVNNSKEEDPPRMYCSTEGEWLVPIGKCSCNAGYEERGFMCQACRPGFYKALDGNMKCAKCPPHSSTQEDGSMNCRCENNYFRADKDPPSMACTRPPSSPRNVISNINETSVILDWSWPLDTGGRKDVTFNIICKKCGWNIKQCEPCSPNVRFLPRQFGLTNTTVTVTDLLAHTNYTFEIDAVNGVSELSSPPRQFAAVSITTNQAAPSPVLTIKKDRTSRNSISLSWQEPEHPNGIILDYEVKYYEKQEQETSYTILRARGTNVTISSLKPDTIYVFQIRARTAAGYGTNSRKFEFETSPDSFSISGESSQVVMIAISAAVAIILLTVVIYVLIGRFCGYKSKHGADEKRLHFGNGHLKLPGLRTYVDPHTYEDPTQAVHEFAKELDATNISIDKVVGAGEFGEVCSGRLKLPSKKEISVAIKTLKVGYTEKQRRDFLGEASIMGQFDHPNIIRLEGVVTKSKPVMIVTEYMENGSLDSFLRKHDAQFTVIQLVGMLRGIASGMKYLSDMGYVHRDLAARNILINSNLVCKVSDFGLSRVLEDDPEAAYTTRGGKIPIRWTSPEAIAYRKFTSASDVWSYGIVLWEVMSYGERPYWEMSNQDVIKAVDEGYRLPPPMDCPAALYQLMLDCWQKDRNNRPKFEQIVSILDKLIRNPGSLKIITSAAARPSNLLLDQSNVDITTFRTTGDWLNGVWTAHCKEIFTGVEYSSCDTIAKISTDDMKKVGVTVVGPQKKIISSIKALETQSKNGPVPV
Serine/threonine-protein kinase Nek1 (Homo sapiens), sequence (Q96PY6 whole entry): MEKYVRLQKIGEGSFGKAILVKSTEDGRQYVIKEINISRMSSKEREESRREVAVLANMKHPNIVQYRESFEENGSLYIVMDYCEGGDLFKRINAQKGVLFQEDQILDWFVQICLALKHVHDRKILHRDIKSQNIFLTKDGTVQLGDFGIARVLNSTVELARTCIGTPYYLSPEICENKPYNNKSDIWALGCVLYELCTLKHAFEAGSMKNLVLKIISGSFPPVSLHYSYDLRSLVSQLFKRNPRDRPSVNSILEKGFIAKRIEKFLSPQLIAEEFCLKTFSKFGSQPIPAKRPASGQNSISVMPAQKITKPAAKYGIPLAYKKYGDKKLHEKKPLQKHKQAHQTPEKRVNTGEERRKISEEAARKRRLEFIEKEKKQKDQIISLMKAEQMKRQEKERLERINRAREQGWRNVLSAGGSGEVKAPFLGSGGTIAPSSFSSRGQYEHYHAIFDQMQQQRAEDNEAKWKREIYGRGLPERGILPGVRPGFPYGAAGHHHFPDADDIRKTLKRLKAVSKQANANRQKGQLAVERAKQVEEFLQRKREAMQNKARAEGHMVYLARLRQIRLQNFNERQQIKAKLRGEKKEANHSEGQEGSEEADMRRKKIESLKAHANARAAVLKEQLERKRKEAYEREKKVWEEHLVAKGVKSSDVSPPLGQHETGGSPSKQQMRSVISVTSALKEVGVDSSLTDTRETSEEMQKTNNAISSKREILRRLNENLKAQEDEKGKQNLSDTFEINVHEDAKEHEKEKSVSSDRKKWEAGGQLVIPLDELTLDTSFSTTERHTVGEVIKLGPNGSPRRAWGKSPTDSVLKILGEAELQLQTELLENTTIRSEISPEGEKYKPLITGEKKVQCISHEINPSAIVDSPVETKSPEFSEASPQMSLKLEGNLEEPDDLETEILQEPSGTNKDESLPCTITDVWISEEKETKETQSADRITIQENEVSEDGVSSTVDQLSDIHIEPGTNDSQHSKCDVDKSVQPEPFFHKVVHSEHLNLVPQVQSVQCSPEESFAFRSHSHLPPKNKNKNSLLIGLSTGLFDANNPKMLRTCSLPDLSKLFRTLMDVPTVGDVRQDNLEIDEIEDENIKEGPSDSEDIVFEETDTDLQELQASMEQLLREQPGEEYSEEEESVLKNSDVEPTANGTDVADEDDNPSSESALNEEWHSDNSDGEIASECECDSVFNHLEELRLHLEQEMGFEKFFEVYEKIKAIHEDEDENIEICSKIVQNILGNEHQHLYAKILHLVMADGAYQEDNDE
Serine/threonine-protein kinase 17B (Homo sapiens), sequence (O94768 whole entry): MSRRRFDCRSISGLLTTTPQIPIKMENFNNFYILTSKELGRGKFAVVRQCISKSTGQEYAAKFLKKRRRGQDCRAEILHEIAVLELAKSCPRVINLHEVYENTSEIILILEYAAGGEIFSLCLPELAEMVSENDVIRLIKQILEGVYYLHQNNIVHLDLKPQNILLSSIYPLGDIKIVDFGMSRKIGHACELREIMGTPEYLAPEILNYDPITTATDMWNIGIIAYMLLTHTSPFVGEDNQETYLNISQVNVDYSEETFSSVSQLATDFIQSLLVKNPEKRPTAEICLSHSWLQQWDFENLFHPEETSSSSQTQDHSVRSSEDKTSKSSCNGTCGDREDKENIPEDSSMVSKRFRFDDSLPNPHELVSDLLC
Mast/stem cell growth factor receptor Kit (Homo sapiens), P10721 [L576P], sequence (P10721 whole entry L576P): as the sequence (P10721 whole entry) above, with L576P counted along it

For `O=C(Nc1cccnn1)N1CCC(=Cc2cccc(Oc3ccc(C(F)(F)F)cn3)c2)CC1`, the residual activity [1] was 100%, the residual activity [2] was 77% and the residual activity [3] was 100%. For the same compound, the residual activity [4] was 100%, the residual activity [5] was 96% and the residual activity [6] was 100%. It also gave a residual activity [7] of 100%, a residual activity [8] of 100% and a residual activity [9] of 100%. For the same compound, the residual activity [10] was 100%, the residual activity [11] was 85% and the residual activity [12] was 100%. It also gave a residual activity [13] of 100%, a residual activity [14] of 99% and a residual activity [15] of 100%. The residual activity [16] was 100%, the residual activity [17] was 100% and the residual activity [18] was 92%. The residual activity [19] was 87%, the residual activity [20] was 97% and the residual activity [21] was 100%. For the same compound, the residual activity [22] was 0%, the residual activity [23] was 100% and the residual activity [24] was 100%. It also gave a residual activity [25] of 100%, a residual activity [26] of 100% and a residual activity [27] of 100%. For the same compound, the residual activity [28] was 100%, the residual activity [29] was 100% and the residual activity [30] was 100%. The residual activity [31] was 98%, the residual activity [32] was 100% and the residual activity [33] was 100%. For the same compound, the residual activity [34] was 45%, the residual activity [35] was 66% and the residual activity [36] was 100%. For the same compound, the residual activity [37] was 100%, the residual activity [38] was 83% and the residual activity [39] was 80%. For the same compound, the residual activity [40] was 100%, the residual activity [41] was 100% and the residual activity [42] was 76%. It also gave a residual activity [43] of 100%, an inhibition [44] of -3.23% and an inhibition [45] of 7.86%.
For `O=C(Nc1cccnn1)N1CC(C/C=C/c2cncc(Oc3ccc(C(F)(F)F)cn3)n2)C1`, the residual activity [1] was 92%, the residual activity [2] was 100% and the residual activity [3] was 100%. For the same compound, the residual activity [4] was 96%, the residual activity [5] was 73% and the residual activity [6] was 98%. For the same compound, the residual activity [7] was 59%, the residual activity [8] was 100% and the residual activity [9] was 59%. For the same compound, the residual activity [10] was 100%, the residual activity [11] was 100% and the residual activity [12] was 100%. It also gave a residual activity [13] of 99%, a residual activity [14] of 100% and a residual activity [15] of 100%. The residual activity [16] was 95%, the residual activity [17] was 100% and the residual activity [18] was 67%. It also gave a residual activity [19] of 89%, a residual activity [20] of 100% and a residual activity [21] of 74%. The residual activity [22] was 88%, the residual activity [23] was 78% and the residual activity [24] was 100%. It also gave a residual activity [25] of 97%, a residual activity [26] of 81% and a residual activity [27] of 100%. The residual activity [28] was 76%, the residual activity [29] was 100% and the residual activity [30] was 85%. It also gave a residual activity [31] of 100%, a residual activity [32] of 71% and a residual activity [33] of 100%. The residual activity [34] was 92%, the residual activity [35] was 100% and the residual activity [36] was 100%. It also gave a residual activity [37] of 100%, a residual activity [38] of 74% and a residual activity [39] of 100%. The residual activity [40] was 100%, the residual activity [41] was 100% and the residual activity [42] was 100%. The residual activity [43] was 73%, the inhibition [44] was 1.14% and the inhibition [45] was -1%.
